From ChEMBL document CHEMBL3392922, “MMV box screening in the Dd2 P. falciparum strain” come the findings set out here.

This test concerns Plasmodium falciparum. Kind of test: MMV: IC50 determined against P. falciparum Dd2-luc strain using a Malaria Sybr Green I Fluorescence assay. Starting conditions were 1% trophozoite synchronised parasites at 2% haematocrit. Fluorescence detection completed after 48hr incubation at 37 degrees C under 1% O2, 3% CO2 and balance N2. Particulars: Dd2, 48 h. The class given is functional, organism-based.
One may read the IC50 as the midpoint of a concentration-inhibition curve. Read a low IC50 as greater potency. Compound `Cc1ccc(NC(=O)Nc2cccc(Cl)c2)cc1F` registered an IC50 of 1210 nM. In the case of `COc1cc2cc(C(=O)Nc3ccccc3)c(N)nc2cc1OC` it was 884 nM. In the case of `Cc1cc(N2CCCC2)nc(Nc2ccc(NC(=O)CCc3ccccc3)cc2)n1` it was 1260 nM.

On to `CN1CCN(c2c3c(c(C#N)c4nc5ccccc5n24)CCC3)CC1`, for which the IC50 worked out at 1490 nM. Regarding `COc1cccc(Nc2nc(NCCO)c3ccccc3n2)c1`, inhibition was half-maximal at 885 nM (IC50). The compound `CCN1CCN(c2c(C(=O)c3ccccc3)cnc3cc(OC)c(OC)cc23)CC1` displayed an IC50 of 3340 nM.

`Cc1cc(Nc2ccc(Cl)cc2)n2nc(C(F)(F)F)nc2n1` registered an IC50 of 302 nM. As to `O=C(Nc1nc(-c2ccccn2)cs1)c1ccccc1Br`, the IC50 amounted to 1610 nM. In turn, `CCOC(=O)C1CCN(C(=O)CN2C(=O)c3ccccc3C2c2c[nH]c3ccccc23)CC1` (configuration not stated) came in with an IC50 of 512 nM. Next, `CCC1(C)CC(CCNCc2ccccc2O)(c2ccc(C)cc2)CCO1` (configuration not stated): 141 nM; `N=c1n(CCN2CCCCC2)c2ccccc2n1CC(O)c1cccc(Br)c1` (configuration not stated): 1110 nM; `CC(=O)c1sc(NC(=O)Nc2ccc(C)cc2C)nc1C`: 1970 nM. On to `CCN(Cc1ccccc1)C1CCN(Cc2cc(Br)ccc2O)CC1`, for which inhibition was half-maximal at 603 nM (IC50).

Compound `O=C(Nc1ccc(Br)cc1)Nc1cccc(Cl)c1` had an IC50 of 3590 nM.

`COc1ccc(-c2nc(NC(=O)CS(=O)(=O)c3ccc(F)cc3)sc2C)cc1` gave an IC50 of 515 nM. `Cc1cc(C)cc(Nc2cc(C)nc3nc(C(F)(F)F)nn23)c1` had an IC50 of 137 nM. Next, `FC(F)(F)c1cccc(Nc2nc3ccccc3nc2Nc2cccc(C(F)(F)F)c2)c1`: 739 nM; `CCn1c(CN2CCN(Cc3ccccc3)CC2)nc2cc(NC(=O)c3cccs3)ccc21`: 468 nM; `O=C(CSc1ccc2nnc(-c3cccc(F)c3)n2n1)Nc1ccc2c(c1)OCO2`: 541 nM. In the case of `COc1cc(-c2nc(-c3ccccc3)c(-c3ccccc3)[nH]2)cc(OC)c1O` it was 1540 nM.

Turning to `CC1=C(CC(=O)c2cccc([N+](=O)[O-])c2)C(=O)c2ccccc2C1=O`, the IC50 turned out to be 129 nM.

Turning to `COc1cccc(C=Cc2nc(=O)c3ccccc3o2)c1OC`, half-maximal inhibition (IC50) was put at 426 nM. Next, `Fc1ccc2[nH]c3c(NCCCN4CCOCC4)ncnc3c2c1`: 335 nM; `c1ccc(/C2=N/c3ccccc3/N=C(/c3ccccc3)c3ccccc32)cc1`: 638 nM; `CCOc1ccc(CN2CCN(CC(O)COc3ccc(OCC(O)CN4CCN(Cc5ccc(OCC)cc5)CC4)cc3)CC2)cc1` (configuration not stated): 948 nM. In the case of `COc1cccc(Cn2c(Oc3ccccc3)nc3c2c(=O)n(C)c(=O)n3C)c1` it was 1150 nM. In the case of `CC(C)(C)c1ccc(C(=O)Nc2nc3ccccc3s2)cc1` it was 4150 nM; in that of `O=c1nc(C=Cc2ccc(Br)cc2)oc2ccccc12`, 5930 nM. The compound `CCN(CC)CCNc1ccnc2cc3ccccc3cc12` registered an IC50 of 465 nM. In the case of `COc1ccc(-c2nonc2NC(=O)c2cccc(C)c2)cc1OC` it was 904 nM; in that of `COc1ccc(C(=O)NC(c2ccccc2Cl)c2cc(Cl)c3cccnc3c2O)cc1` (configuration not stated), 978 nM; in that of `CCCC(c1nnnn1C1CCCCC1)N1CCN(C(=O)c2ccco2)CC1` (configuration not stated), 518 nM.

As to `COc1ccc(-c2cc(=O)oc3c4c(ccc23)OCN(Cc2ccc(F)cc2)C4)cc1`, inhibition was half-maximal at 851 nM (IC50). In the case of `COc1ccccc1C(=O)ON=C(N)Cc1cccc2ccccc12` it was 4020 nM; in that of `COc1ccc2nc(C)cc(Nc3cccc(O)c3)c2c1`, 941 nM; in that of `Oc1ccc(Br)cc1CN1CCN(Cc2cccc(F)c2)CC1`, 1290 nM. Next, `O=C(Nc1ccc(CN2CCOCC2)cc1)c1ccc(-c2cc(Cl)ccc2Cl)o1`: 1740 nM; `CC(C)(C)C(=O)Nc1ccc(C(=O)Nc2cccc(-c3nc4ccccc4[nH]3)c2)cc1`: 753 nM; `COc1ccc(C2N(C)c3ccccc3N2C)cc1`: 1100 nM. `COCCN(C(=O)Cc1cccs1)C(C(=O)NCc1ccc(OC)cc1)c1ccc(C(C)C)cc1` (configuration not stated) yielded an IC50 of 975 nM. Compound `CCOC(=O)C1=C(C)N=c2sc(=Cc3ccccc3O)c(=O)n2C1c1ccc(OC)c2ccccc12` (configuration not stated) came in with an IC50 of 1520 nM. In the case of `Nc1nc(Nc2cccc(F)c2)nc2ccccc12` it was 2370 nM; in that of `Cc1ccc(Cl)cc1N1CCN(CCCNC(=O)C2CCN(c3nc4ccccc4[nH]3)CC2)CC1`, 1300 nM. Next, `Cc1ccc2cc3c(N)c4c(C)ccc(C)c4nc3nc2c1`: 1440 nM; `O=C(CCc1ccccc1)c1ccccc1OCC(O)CN1CCCCC1` (configuration not stated): 1090 nM. Next, `O=C(Nc1ccc(CN2CCOCC2)cc1)c1ccc(-c2ccc(Br)cc2)o1`: 958 nM; `Cc1ccc(C)c(-c2csc(Nc3ccc(C)c(C)c3)n2)c1`: 1050 nM. For the compound `CCN1CCN(c2cc(C)c3cc(NC(=O)c4ccc(OC)c(OC)c4)ccc3n2)CC1`, the IC50 was found to be 1850 nM. Compared with the last compound, the IC50 is about 1.8-fold higher. In turn, `c1ccc2c(NCCc3c[nH]c4ccccc34)c3ccccc3nc2c1` gave an IC50 of 200 nM. This IC50 is about 9.2-fold lower than that of the compound before. Consider `Cc1ccc(Nc2nc(N)c3ccccc3n2)cc1Cl`, for which half-maximal inhibition (IC50) was put at 1100 nM. As to `Cc1ccc(-c2cc(C(=O)Nc3ccc(S(=O)(=O)N4CCCCC4)cc3)[nH]n2)c(O)c1`, the IC50 worked out at 2350 nM. In the case of `CC(C)=CCN1CCC(C(=O)Nc2ccc(-c3nc4ccccc4[nH]3)cc2)CC1` it was 1240 nM; in that of `Cc1cc(NC(=O)c2cccc(C(F)(F)F)c2)n(-c2nc(-c3ccc4c(c3)OCO4)cs2)n1`, 2180 nM; in that of `C=CC12CCN(CC1)C(C(O)c1ccnc3ccc(OC)cc13)C2` (configuration not stated), 418 nM.

In turn, `Cc1cc(Nc2cccc(F)c2)nc(NCc2ccccc2)n1` displayed an IC50 of 544 nM. Next, `CCCCNc1nc(NC(C)(C)C)nc(NC(C)(C)C)n1`: 893 nM; `O=C1CC(O)(C(F)(F)C(F)(F)F)Oc2ccccc21` (configuration not stated): 1030 nM; `CN(C)c1ccc(N=Cc2ccc(N3CCOCC3)cc2)cc1`: 345 nM. In the case of `CCN(CC)CCNc1ncnc2c1[nH]c1ccc(Cl)cc12` it was 373 nM; in that of `CCN1CCN(Cc2ccc(NC(=O)c3cc4ccc5cccnc5c4[nH]3)cc2)CC1`, 665 nM.

Compound `CCOc1ccc(-c2nc(NC(=O)c3cccc(S(C)(=O)=O)c3)sc2C)cc1` returned an IC50 of 1440 nM. In turn, `CCCn1c(=N)c(C(=O)NC2CCCCC2)cc2c(=O)n3cccc(C)c3nc21` returned an IC50 of 1640 nM.

`Cc1cc(Nc2ccc3ccccc3c2)n2ncnc2n1` had an IC50 of 156 nM. Next, `COc1ccc(Nc2nc(NCc3ccccc3)c3ccccc3n2)cc1`: 90.6 nM. `Cc1[nH]c(-c2ccc(F)cc2)cc1C(=O)NC1CCN(Cc2ccccc2)CC1`: half-maximal inhibition (IC50) was put at 1670 nM. Next, `O=C(NC(c1ccccc1)c1ccc2cccnc2c1O)c1ccccc1` (configuration not stated): 426 nM; `CCCCc1c(C)nc2c(OC)cccc2c1O`: 1410 nM; `CCc1ccc(CNCC(O)c2ccccc2)cc1` (configuration not stated): 1870 nM. In the case of `Oc1ccc(Cl)cc1CNc1nc2ccccc2[nH]1` it was 1000 nM; in that of `CCOc1cc(CNC(C)C(O)c2ccccc2)cc(Cl)c1OCC` (configuration not stated), 1910 nM; in that of `CCN(CC)c1cc(C)c2cc(NC(=O)c3cccc(OC)c3)ccc2n1`, 2770 nM.

Take `CCCCCCc1cc2cc(-c3nc4ccccc4[nH]3)c(=Nc3ccccc3C)oc2cc1O`: inhibition was half-maximal at 5720 nM (IC50).
